This is an account of results in patent US20110009433A1, “BICYCLIC PYRROLE COMPOUND” (DAINIPPON SUMITOMO PHARMA CO., LTD., priority 2008, published 2011).

Data set [1] in a line: Storage stability under a light source: residual rate by HPLC and appearance after two week storage. Format: physicochemical. The conditions noted are these: for residual rate: HPLC area percentage; for change in color after the stability test (in words) / stability under a light source (in words): both 1000 lux and 4000 lux. The protocol: The residual rates after two week storage under a light source of 1000 lux and 4000 lux were measured for each of the crystalline monohydrochloride 0.5 hydrate of Example 1 (compound A) produced by the method of the present invention and the amorphous powders of the compound of Example 6 of International Publication No. 2006/068163 (compound B) produced by a conventional technique.
The residual rate (%) of a compound was determined by the area percentage of the residual rate of the compound measured using high performance liquid chromatography (HPLC). The HPLC measurement conditions were as follows:
Column: CAPCELL PAK C18 UG120 (4.6 mm I.D.×250 mm)
Mobile phase (A/B): 10 mM sodium phosphate buffer (pH=6.9)/CH3CN
Mobile phase (ratio of B): 30% (0 min) →90% (45 min)
Column temperature: 40° C.

The nature of data set [2]: Hygroscopicity measured at room temperature (weight change under moisture adsorption/desorption). It is filed as physicochemical. Conditions: humidity of 0 to 90%. The protocol: The hygroscopicity was measured at room temperature for each of the crystalline monohydrochloride 0.5 hydrate of Example 1 (compound A) produced by the method of the present invention and the amorphous powders of the compound of Example 6 of International Publication No. 2006/068163 (compound B) produced by a conventional technique.

The next data set deals with T1, human recombinant DPP IV (Homo sapiens, UniProt P27487).
T1 construct: purchased R&D system
T1 sequence (P27487 whole entry): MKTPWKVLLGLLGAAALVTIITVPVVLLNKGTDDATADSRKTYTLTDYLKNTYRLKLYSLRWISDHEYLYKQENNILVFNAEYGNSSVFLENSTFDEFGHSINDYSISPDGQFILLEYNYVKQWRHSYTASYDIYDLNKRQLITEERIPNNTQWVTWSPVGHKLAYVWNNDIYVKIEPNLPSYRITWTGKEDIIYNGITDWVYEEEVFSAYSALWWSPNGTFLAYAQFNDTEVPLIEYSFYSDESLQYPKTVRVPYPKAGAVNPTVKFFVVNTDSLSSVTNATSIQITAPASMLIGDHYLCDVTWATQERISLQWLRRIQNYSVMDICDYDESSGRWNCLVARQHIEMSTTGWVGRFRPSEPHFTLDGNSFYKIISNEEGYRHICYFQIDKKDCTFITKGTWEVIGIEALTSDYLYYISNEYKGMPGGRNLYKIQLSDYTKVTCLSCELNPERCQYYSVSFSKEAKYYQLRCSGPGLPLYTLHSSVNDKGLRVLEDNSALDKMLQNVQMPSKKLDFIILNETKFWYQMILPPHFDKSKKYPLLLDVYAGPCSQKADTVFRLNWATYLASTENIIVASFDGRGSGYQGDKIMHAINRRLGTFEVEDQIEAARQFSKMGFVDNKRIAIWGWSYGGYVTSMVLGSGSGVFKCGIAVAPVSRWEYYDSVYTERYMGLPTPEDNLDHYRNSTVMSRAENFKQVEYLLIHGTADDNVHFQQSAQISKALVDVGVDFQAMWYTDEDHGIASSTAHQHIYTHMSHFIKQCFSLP
In words: In vitro DPP-IV inhibitory action measurement test. Format: biochemical. The conditions noted are these: preincubated 100 to 110 minutes, substrate Gly-Pro-MCA 40 μmol/L. Here is the method: Solutions containing test compounds were prepared at various concentrations and added to microassay plates. Further, human recombinant DPP IV (R&D system) was added and preincubated at room temperature for 100 to 110 minutes, followed by adding a substrate (Glycyl-L-proline 4-methylcoumaryl-7-amide, Peptide Institute, Inc.; final concentration: 40 μmol/L) to start the enzymatic reaction. The enzymatic reaction rate was determined by measuring the fluorescence change with time for 10 minutes after 10 minutes elapsed from the start of addition of the substrate using a fluorescence plate reader (excitation wavelength: 380 nm, measurement wavelength: 460 nm). From the results obtained, the compound concentration showing 50% inhibition was calculated as an IC50 value.

Where [3] appears, read: two week storage, 1000 Lux, 11% RH.
Where [4] appears, read: two week storage, 4000 Lux, 10% RH.

pIC50: −log10 of the molar value. Where a name gives a salt, the structure may show the parent alone.

In the case of `Cn1c(=O)c2c(cc(N3CCC[C@@H](N)C3)n2Cc2cc(F)ccc2Cl)n(C)c1=O` (as salt: hydrochloride) (hydrate or solvate) [Compound A, 6-[(3R)-3-aminopiperidin-1-yl]-5-(2-chloro-5-fluorobenzyl)-1,3-dimethyl-1H-pyrrolo[3,2-d]pyrimidine-2,4(3H,5H)-dione monohydrochloride hemihydrate], the melting point – broadly, the temperature, or range, at which the solid turns liquid – was in the range of 205 to 208 °C.

Consider `Cl.Cn1c(=O)c2c(cc(N3CCC[C@@H](N)C3)n2Cc2cc(F)ccc2Cl)n(C)c1=O` [Compound B, reference compound], for which the “appearance (color)” value in data set [1] (Initial) is on record as “Pale yellow”; in data set [1] (setting [3]) it was “Yellow”; in data set [1] (setting [4]), “Yellow”. The residual rate is recorded as 100.0% in data set [1] (Initial), 99.2% in data set [1] (setting [3]) and 97.4% in data set [1] (setting [4]). Further, in data set [1] (two week storage), the “change in color after the stability test (in words)” value was “apparently changed in color to yellow”. Moreover, in data set [1] (two week storage), the “stability under a light source (in words)” value is reported as “low stability”. Besides, in data set [2], the “change in the weight (hygroscopicity)” value was −5.0 to 9.0%.

Take `Cn1c(=O)c2c(cc(N3CCC[C@@H](N)C3)n2Cc2cc(F)ccc2Cl)n(C)c1=O` [Compound A, 6-[(3R)-3-aminopiperidin-1-yl]-5-(2-chloro-5-fluorobenzyl)-1,3-dimethyl-1H-pyrrolo[3,2-d]pyrimidine-2,4(3H,5H)-dione monohydrochloride hemihydrate]: in data set [1] (Initial), the “appearance (color)” value is “Pale yellow” and the residual rate is given as 100.0%. In addition, in data set [1] (two week storage), the “change in color after the stability test (in words)” value was “no change in color” and the “stability under a light source (in words)” value is “extremely high stability”. In data set [1] (setting [3]), the “appearance (color)” value is given as “Pale yellow” and the residual rate is recorded as 100.0%. Besides, in data set [1] (setting [4]), the “appearance (color)” value is on record as “Pale yellow” and the residual rate turned out to be 99.9%. Further, in data set [2], the “change in the weight (hygroscopicity)” value is listed as “no change in the weight”. For the same compound, the pIC50 (usually the negative decadic logarithm of the IC50, by convention in mol/L) on human recombinant DPP IV is 9.15.
